Results reported in PubChem BioAssay (NCI).
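1) Cells in 96-well plates. 2) Compound, 48 h, 5 concentrations. 3) Linear interpolation between surrounding doses. 4) Unreached endpoint = highest concentration. TGI is the concentration that stops growth completely.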

Assays:
Experiment in all cases: NCI-60 cell line screen, 48 h
SK-MEL-2 melanoma = test system: SK-MEL-2 melanoma
OVCAR-8 ovarian = test system: OVCAR-8 ovarian
SN12C renal = test system: SN12C renal
M14 melanoma = test system: M14 melanoma
UO-31 renal = test system: UO-31 renal
RXF 393 renal = test system: RXF 393 renal
COLO 205 colon = test system: COLO 205 colon
OVCAR-5 ovarian = test system: OVCAR-5 ovarian
MDA-MB-231 breast = test system: MDA-MB-231 breast
HOP-92 NSCLC = test system: HOP-92 NSCLC
MDA-N = test system: MDA-N
SF-539 CNS = test system: SF-539 CNS
HCC-2998 colon = test system: HCC-2998 colon

Structure (SMILES) | TGI (SK-MEL-2 melanoma) [µM] | TGI (OVCAR-8 ovarian) [µM] | TGI (SN12C renal) [µM] | TGI (M14 melanoma) [µM] | TGI (UO-31 renal) [µM] | TGI (RXF 393 renal) [µM] | TGI (COLO 205 colon) [µM] | TGI (OVCAR-5 ovarian) [µM] | TGI (MDA-MB-231 breast) [µM] | TGI (HOP-92 NSCLC) [µM] | TGI (MDA-N) [µM] | TGI (SF-539 CNS) [µM] | TGI (HCC-2998 colon) [µM]
O=C(CSc1nnc(-c2ccc(N=Cc3ccc(Cl)cc3)cc2)o1)Nc1ccccc1[N+](=O)[O-] | > 100 | > 100 | > 100 | > 100 | > 100 | > 100 | > 100 | – | – | – | – | – | –
COc1cc(O)c2c(=O)cc(-c3ccc(O)cc3O)oc2c1CC=C(C)C | 39.1 | 35.3 | 31.5 | 30.2 | 33.5 | 19.6 | 26.7 | > 100 | 54.1 | 35.7 | 61.5 | 34.7 | –
C/C(CC(=O)Nc1ccc([N+](=O)[O-])cc1)=N\NC(N)=O | > 100 | > 100 | > 100 | > 100 | > 100 | > 100 | > 100 | > 100 | – | > 100 | – | > 100 | > 100
CC(=O)OC1COC(n2c(O)c(N=NC(N)=S)c3cc(Br)ccc32)C(OC(C)=O)C1OC(C)=O (configuration not stated) | > 100 | > 100 | > 100 | > 100 | – | > 100 | > 100 | > 100 | – | > 100 | – | > 100 | > 100
O=[N+]([O-])/C(C(Cl)=C(Cl)Cl)=C(\N1CCOCC1)n1nnc2ccccc21 | 47.7 | – | 42.9 | 33.4 | 33 | – | 34.7 | 44 | 35.1 | 37.6 | 42.5 | 32.8 | –
C/C(=N\NS(=O)(=O)c1ccc(C)cc1)C(CN1CCCCC1)C(c1ccccc1)c1c(O)c2ccccc2oc1=O (configuration not stated) | > 100 | > 100 | > 100 | > 100 | > 100 | > 100 | > 100 | > 100 | – | > 100 | – | > 100 | > 100
Cc1csc2c(=O)n(C3OC(CO)C(O)C3O)c(=O)[nH]c12 (configuration not stated) | – | > 100 | > 100 | > 100 | > 100 | > 100 | > 100 | > 100 | > 100 | > 100 | > 100 | > 100 | –
O=C1CCC2C(O)c3cc4c(cc3C(c3ccc5c(c3)OCO5)N12)OCO4 (configuration not stated) | > 100 | > 100 | > 100 | > 100 | > 100 | – | > 100 | > 100 | > 100 | 66.8 | > 100 | > 100 | > 100
CCCCOC(=O)C1C2CCC(O2)C1C(=O)OCCCC (configuration not stated) | > 100 | > 100 | > 100 | > 82.1 | > 100 | > 86.8 | > 57.3 | > 100 | – | > 100 | – | > 100 | > 100
COC(=O)C(=O)C(C(=O)C(=O)Nc1ccc(F)cc1)c1nc2ccc([N+](=O)[O-])cc2[nH]c1=O (configuration not stated) | – | > 100 | > 100 | > 100 | > 100 | > 100 | > 100 | > 100 | – | > 100 | – | > 100 | > 100
COc1ccc2c3c1O[C@]1(C)C34CCN(C)C(C2)C42C=C[C@@]1(OC)c1c(O)ccc(O)c12 | > 100 | > 100 | – | – | > 100 | > 100 | > 100 | > 100 | – | > 100 | – | > 100 | > 100
NC(=O)N/N=C(\CC1OC(=O)c2ccccc21)c1ccco1 (configuration not stated) | > 100 | – | – | > 100 | > 100 | > 100 | > 100 | > 100 | – | > 100 | – | > 100 | > 100
COC(=O)N/N=C(\Cc1ccccc1)CN(C)C | > 100 | > 100 | – | > 100 | – | > 100 | > 100 | > 100 | – | > 100 | – | > 100 | > 100
O=c1[nH]c2cc([N+](=O)[O-])ccc2nc1/C(=N/Nc1ccccc1)C(O)c1ccccc1Cl (configuration not stated) | > 100 | > 100 | > 100 | > 100 | > 100 | > 100 | > 100 | > 100 | – | > 100 | – | > 100 | 64.5
Nc1ccnc(=O)[nH]1 | > 100 | > 100 | > 100 | > 100 | > 100 | > 100 | > 100 | > 100 | – | > 100 | – | > 100 | –
CCOC(=O)N1CCN(C=S)CC1 | > 100 | > 100 | > 100 | > 100 | > 100 | > 100 | > 100 | > 100 | – | – | – | > 100 | > 100
O=c1[nH]c2cc(Cl)ccc2nc1/C(=N\O)C(O)c1cccc([N+](=O)[O-])c1 (configuration not stated) | – | > 100 | > 100 | > 100 | > 100 | > 100 | > 100 | > 100 | – | > 100 | – | > 100 | > 100
CCOC(=O)P(=O)(O)c1ccc(N(C)Cc2ccccc2)cc1 | > 100 | > 100 | > 100 | > 100 | > 100 | – | > 100 | > 100 | > 100 | > 100 | > 100 | > 100 | > 100
CCCCNc1nc(C#N)c(N)s1 | > 100 | > 100 | > 100 | > 100 | > 100 | – | > 100 | > 100 | – | > 100 | – | > 100 | > 100
O=C(c1cccs1)N(C(=S)N1CCN(c2ccccn2)CC1)c1ccccc1 | > 100 | > 100 | > 100 | > 100 | > 100 | > 100 | > 100 | > 100 | – | > 100 | – | > 100 | –

Structure (SMILES) | TGI (SK-MEL-2 melanoma) [µM] | TGI (OVCAR-8 ovarian) [µM] | TGI (SN12C renal) [µM] | TGI (M14 melanoma) [µM] | TGI (UO-31 renal) [µM] | TGI (RXF 393 renal) [µM] | TGI (COLO 205 colon) [µM] | TGI (OVCAR-5 ovarian) [µM] | TGI (MDA-MB-231 breast) [µM] | TGI (HOP-92 NSCLC) [µM] | TGI (MDA-N) [µM] | TGI (SF-539 CNS) [µM] | TGI (HCC-2998 colon) [µM]
Cn1cc2ccccc2c1-c1nc(F)nc(F)n1 | > 100 | – | > 100 | > 100 | > 100 | > 100 | > 100 | > 100 | – | > 100 | – | > 100 | > 100
CCOC(=O)c1cccn1S(=O)(=O)c1cc(Cl)ccc1NC(=O)CC | > 100 | – | > 100 | – | 54 | > 100 | 65.4 | > 100 | > 100 | > 100 | – | > 100 | –
C[C@]12CCC(=O)C=C1CC[C@@H]1[C@@H]2CC[C@]2(C)C(=O)NC(=O)C[C@@H]12 | > 100 | > 100 | > 100 | > 100 | > 100 | > 100 | > 100 | > 100 | – | > 100 | – | > 100 | > 100
CNS(=O)(=O)NN(C)S(=O)(=O)c1ccccc1 | > 100 | > 100 | > 100 | > 100 | > 100 | > 100 | > 100 | – | – | – | – | > 100 | > 100
Cn1cc(C(=O)NCCC(=N)N)cc1NC(=O)C1=[N+](C)C=C(NC(=O)c2cccc(C(=O)NC3=CC(C(=O)Nc4cc(C(=O)NCCC(=N)N)cn4C)=[N+](C)C3)c2)C1 | > 100 | > 100 | > 100 | > 100 | > 100 | > 100 | > 100 | – | – | > 100 | – | > 100 | > 100
CC(=O)NC1C(OCc2ccccc2)OC(CO)C(O)C1OC(C)C(=O)NC(C(=O)N[C@@H](CCC(=O)NCCNCCNc1c2ccccc2nc2cccc([N+](=O)[O-])c12)C(N)=O)C(C)C (some centres not stated) | 46.7 | > 100 | > 100 | 32.2 | 64.6 | – | 56.7 | – | > 100 | 69.9 | 54.5 | 45.6 | 50.4
C=Cc1ccc(C)[n+](C[Si](C)(C)O[Si](C)(C)C)c1 | > 100 | > 100 | > 100 | > 100 | > 100 | – | > 100 | > 100 | – | – | – | > 100 | > 100
CC(=O)OCC1=C(CCC#N)N2C(=O)C(NC(=O)Cc3cccs3)C2S(=O)C1 (configuration not stated) | > 100 | > 100 | > 100 | > 100 | > 100 | > 100 | > 100 | > 100 | – | > 100 | – | > 100 | > 100
CCN(CC)c1c(C(=O)/C=C/c2ccc(OC)cc2)c(-c2ccccc2)nn(C)c1=O | 38.7 | > 100 | 78.4 | – | > 100 | 25 | 9.25 | 28 | – | 43.4 | – | 45.9 | –
Oc1ccccc1/C=C/c1csnn1 | > 100 | > 100 | > 100 | > 100 | > 100 | > 100 | > 100 | > 100 | – | > 100 | – | > 100 | > 100
O=C1/C(=C/c2cccc(F)c2)CCCc2ccccc21 | 29.8 | 29.3 | 31.8 | 26.8 | 29.9 | – | 36.4 | 28.3 | 32.5 | 29.2 | – | 31.2 | 27.8
COC(=O)C1(C(=O)OC)Cc2ccc(OC)cc2C2=C1C(=O)c1ccccc1C2=O | 15.7 | 9.27 | 14.4 | 34.5 | 18.6 | – | 40.5 | 20.2 | 4.34 | 15.9 | 3.36 | 30.7 | 37.6
Cc1cc2c(cc1-c1cc3c(cc1C)C(C(C)C)=C(O)C(=O)/C3=C\Nc1c3ccccc3nc3ccccc13)/C(=C/Nc1c3ccccc3nc3ccccc13)C(=O)C(O)=C2C(C)C | 19.2 | 12.8 | 22 | 12.6 | 15.4 | 20.1 | 6.72 | 16.7 | 19 | 21.5 | 15.8 | 16.1 | –
C=C(C)C1=CCC[C@]2(C1)N=C(OC)[C@@H](C(C)C)N=C2OC | > 100 | > 100 | > 100 | > 100 | > 100 | – | > 100 | > 100 | > 100 | > 100 | > 100 | > 100 | > 100
O=C1/C(=C/c2cccc(Br)c2)CCc2ccccc21 | 25.8 | 36.1 | 29.2 | 29.4 | 26.7 | – | 40.8 | 28.3 | 35.9 | 28.2 | 24.5 | 31.4 | –
NC1=C(NC(=O)Cc2ccc(F)cc2)C(=O)c2ccccc2C1=O | > 100 | 98.5 | > 100 | > 100 | > 100 | 57 | > 100 | > 100 | – | 64.3 | – | > 100 | > 100
COc1cc2c(oc(=O)c3c4oc([Si](C)(C)C)cc4cc(OC)c23)c2cccc(OCc3ccccc3)c12 | > 100 | > 71.5 | > 100 | 61.3 | > 100 | > 48.2 | > 100 | > 100 | – | > 67.2 | – | 56.5 | > 100
Cn1c(=O)c(Br)c(C=O)n(CCO[N+](=O)[O-])c1=O | 15.8 | 7.79 | 17.4 | 15 | – | – | 26.9 | 13.8 | 8.4 | 6.85 | 17.3 | 32.8 | 32
c1ccc2c(c1)cc(C1NCCc3[nH]cnc31)c1ccccc12 (configuration not stated) | 36.5 | > 100 | > 100 | 36.7 | > 100 | 85.6 | 26.4 | > 100 | – | > 95.6 | – | > 59.9 | 21.8
